Results from ChEMBL document CHEMBL1136688, “Synthesis and SAR of aminoalkoxy-biaryl-4-carboxamides: novel and selective histamine H3 receptor antagonists” (Bioorg Med Chem Lett, 2003).

Assays:
[1] = target: Sodium-dependent dopamine transporter (Homo sapiens, UniProt Q01959); assay: Binding affinity towards human UPTK-DA transporter
Histamine H3 receptor [2] = target: T1, Histamine H3 receptor (Homo sapiens, UniProt Q9Y5N1); assay: Affinity to bind with human cloned H3 receptor using radioligand binding assay; details: read-out: pA2 (converted)
D(4) dopamine receptor = target: T2, D(4) dopamine receptor (Homo sapiens, UniProt P21917); assay: Binding affinity towards human D4.2 receptor
T2 sequence (P21917 whole entry): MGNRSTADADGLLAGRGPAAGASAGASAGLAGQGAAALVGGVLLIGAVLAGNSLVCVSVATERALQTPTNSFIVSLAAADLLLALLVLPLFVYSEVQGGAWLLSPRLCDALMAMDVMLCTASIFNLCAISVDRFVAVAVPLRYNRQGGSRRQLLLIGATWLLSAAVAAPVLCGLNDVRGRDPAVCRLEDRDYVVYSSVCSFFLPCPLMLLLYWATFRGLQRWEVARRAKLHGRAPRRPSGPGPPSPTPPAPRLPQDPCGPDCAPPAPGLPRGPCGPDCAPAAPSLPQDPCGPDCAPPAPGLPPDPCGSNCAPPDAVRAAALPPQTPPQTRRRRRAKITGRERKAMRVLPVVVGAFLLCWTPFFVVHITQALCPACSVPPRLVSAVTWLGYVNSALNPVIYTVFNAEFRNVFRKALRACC

[3] = Half life period after oral administration (2.5 mg/kg) in monkey was determined; assay type: ADME, organism-based; details: cercopithecidae, in vivo
Histamine H1 receptor = Histamine H1 receptor (Homo sapiens, UniProt P35367); assay: Binding affinity towards human histaminergic (H1) receptor
Histamine H4 receptor = Histamine H4 receptor (Homo sapiens, UniProt Q9H3N8); assay: Binding affinity towards human histaminergic (H4) receptor
Cavia porcellus = species: Cavia porcellus; assay: Compound was tested for blocked alpha-methylhistamine-induced inhibition of electrical field-stimulation induced twitch response in guinea pig ileum; assay type: functional; details: read-out: pA2 (converted)
[4] = target: Muscarinic acetylcholine receptor M3 (Homo sapiens, UniProt P20309); assay: Binding affinity towards human muscarinic M3 receptor
[5] = Volume distribution after oral administration (2.5 mg/kg) in monkey was determined; assay type: ADME, organism-based; details: cercopithecidae, in vivo
[6] = Plasma clearance after oral administration (2.5 mg/kg) in monkey was determined; assay type: ADME, organism-based; details: cercopithecidae, read-out: Clp (converted)
[7] = Plasma clearance after oral administration (2.5 mg/kg) in dog was determined; assay type: ADME, organism-based, Canis lupus familiaris; details: read-out: Clp (converted)
[8] = Half life period after oral administration (2.5 mg/kg) in dog was determined; assay type: ADME, organism-based, Canis lupus familiaris; details: in vivo
[9] = The peak blood concentration after 5 hr administration (2.5 mg/kg) in dog was determined; assay type: ADME, organism-based, Canis lupus familiaris; parameters: dose 2.5 mg/kg
[10] = target: Histamine H3 receptor (Rattus norvegicus) (UniProt Q9QYN8); details: Brain
[11] = target: Sodium-dependent noradrenaline transporter (Homo sapiens, UniProt P23975); assay: Binding affinity towards human UPTK-NE transporter
[12] = target: T3, Alpha-2C adrenergic receptor (Homo sapiens, UniProt P18825); assay: Binding affinity towards human Alpha-2C adrenergic receptor
T3 sequence (P18825 whole entry): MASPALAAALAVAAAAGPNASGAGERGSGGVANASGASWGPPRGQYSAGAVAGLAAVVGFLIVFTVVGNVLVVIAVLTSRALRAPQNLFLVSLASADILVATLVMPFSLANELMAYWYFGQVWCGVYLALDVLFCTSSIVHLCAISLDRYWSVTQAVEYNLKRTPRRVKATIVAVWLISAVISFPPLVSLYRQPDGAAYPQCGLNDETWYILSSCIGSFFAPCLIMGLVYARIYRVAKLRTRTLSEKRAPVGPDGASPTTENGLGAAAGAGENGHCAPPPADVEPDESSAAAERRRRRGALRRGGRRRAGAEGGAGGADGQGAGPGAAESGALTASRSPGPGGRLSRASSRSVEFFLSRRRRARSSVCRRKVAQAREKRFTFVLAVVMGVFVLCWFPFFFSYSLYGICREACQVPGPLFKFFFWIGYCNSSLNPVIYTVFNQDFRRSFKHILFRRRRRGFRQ

[13] = target: T4, Muscarinic acetylcholine receptor M2 (Homo sapiens, UniProt P08172); assay: Binding affinity towards human muscarinic M2 receptor
T4 sequence (P08172 whole entry): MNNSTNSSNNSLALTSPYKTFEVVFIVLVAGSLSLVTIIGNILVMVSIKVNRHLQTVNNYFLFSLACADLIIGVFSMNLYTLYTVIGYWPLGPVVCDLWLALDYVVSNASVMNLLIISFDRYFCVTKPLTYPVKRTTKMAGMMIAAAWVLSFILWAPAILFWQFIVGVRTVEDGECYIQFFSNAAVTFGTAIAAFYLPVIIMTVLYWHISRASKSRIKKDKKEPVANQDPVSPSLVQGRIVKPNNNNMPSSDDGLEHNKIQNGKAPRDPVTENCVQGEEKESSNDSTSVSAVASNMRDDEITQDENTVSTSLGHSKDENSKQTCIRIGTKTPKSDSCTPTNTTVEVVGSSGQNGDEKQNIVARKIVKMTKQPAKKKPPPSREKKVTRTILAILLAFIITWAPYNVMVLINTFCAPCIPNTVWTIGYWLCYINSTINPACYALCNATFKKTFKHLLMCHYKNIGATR

Histamine H3 receptor [14] = target: T1, Histamine H3 receptor; assay: Binding affinity for human recombinant H3 receptor
[15] = Bioavailability after oral administration (2.5 mg/kg) in monkey was determined; assay type: ADME, organism-based; details: cercopithecidae, in vivo
[16] = target: T5, Muscarinic acetylcholine receptor M1 (Homo sapiens, UniProt P11229); assay: Binding affinity towards human muscarinic M1 receptor
T5 sequence (P11229 whole entry): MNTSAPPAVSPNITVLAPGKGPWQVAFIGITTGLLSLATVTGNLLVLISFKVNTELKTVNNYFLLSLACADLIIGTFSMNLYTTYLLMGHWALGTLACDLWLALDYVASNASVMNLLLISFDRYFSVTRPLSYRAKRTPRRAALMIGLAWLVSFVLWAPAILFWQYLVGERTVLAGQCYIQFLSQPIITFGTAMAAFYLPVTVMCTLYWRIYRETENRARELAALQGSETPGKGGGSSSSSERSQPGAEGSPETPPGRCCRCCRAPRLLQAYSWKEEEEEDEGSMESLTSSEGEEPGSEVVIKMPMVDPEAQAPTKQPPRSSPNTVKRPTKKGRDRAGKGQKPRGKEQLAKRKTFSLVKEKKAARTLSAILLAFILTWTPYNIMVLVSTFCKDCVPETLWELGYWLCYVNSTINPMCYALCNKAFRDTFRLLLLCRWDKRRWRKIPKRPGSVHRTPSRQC

Histamine H2 receptor = Histamine H2 receptor (Homo sapiens, UniProt P25021); assay: Binding affinity towards human histaminergic (H2) receptor
[17] = target: Sodium-dependent serotonin transporter (Homo sapiens, UniProt P31645); assay: Binding affinity towards human UPTK-Serotonin transporter
[18] = Bioavailability after oral administration (2.5 mg/kg) in dog was determined; assay type: ADME, organism-based, Canis lupus familiaris; details: in vivo
[19] = The peak plasma concentration after 5 hr administration (2.5 mg/kg) in monkey was determined; assay type: ADME, organism-based; parameters: dose 2.5 mg/kg; details: cercopithecidae

T1 sequence (Q9Y5N1 whole entry): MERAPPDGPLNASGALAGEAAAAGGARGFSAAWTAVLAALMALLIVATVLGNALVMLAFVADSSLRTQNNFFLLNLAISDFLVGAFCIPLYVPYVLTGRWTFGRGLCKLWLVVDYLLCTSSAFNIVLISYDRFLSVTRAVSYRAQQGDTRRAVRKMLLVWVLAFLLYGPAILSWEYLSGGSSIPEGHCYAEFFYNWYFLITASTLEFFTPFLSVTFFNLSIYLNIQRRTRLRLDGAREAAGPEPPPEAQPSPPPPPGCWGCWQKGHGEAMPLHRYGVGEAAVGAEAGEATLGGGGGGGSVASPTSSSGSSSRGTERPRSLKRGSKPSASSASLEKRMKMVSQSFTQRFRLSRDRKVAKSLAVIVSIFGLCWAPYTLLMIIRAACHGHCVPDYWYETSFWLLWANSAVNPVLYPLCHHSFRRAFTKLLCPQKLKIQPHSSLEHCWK
Histamine H4 receptor, sequence (Q9H3N8 whole entry): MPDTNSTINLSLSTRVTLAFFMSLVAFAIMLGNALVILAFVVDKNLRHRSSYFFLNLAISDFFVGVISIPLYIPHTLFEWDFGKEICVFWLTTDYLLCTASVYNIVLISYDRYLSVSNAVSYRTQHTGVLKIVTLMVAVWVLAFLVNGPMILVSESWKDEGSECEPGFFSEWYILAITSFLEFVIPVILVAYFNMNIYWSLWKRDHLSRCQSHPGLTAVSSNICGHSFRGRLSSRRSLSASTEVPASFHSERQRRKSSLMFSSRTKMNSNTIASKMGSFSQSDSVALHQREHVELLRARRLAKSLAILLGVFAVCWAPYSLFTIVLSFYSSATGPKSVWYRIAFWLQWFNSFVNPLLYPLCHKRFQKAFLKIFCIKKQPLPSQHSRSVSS
Sodium-dependent serotonin transporter, sequence (P31645 whole entry): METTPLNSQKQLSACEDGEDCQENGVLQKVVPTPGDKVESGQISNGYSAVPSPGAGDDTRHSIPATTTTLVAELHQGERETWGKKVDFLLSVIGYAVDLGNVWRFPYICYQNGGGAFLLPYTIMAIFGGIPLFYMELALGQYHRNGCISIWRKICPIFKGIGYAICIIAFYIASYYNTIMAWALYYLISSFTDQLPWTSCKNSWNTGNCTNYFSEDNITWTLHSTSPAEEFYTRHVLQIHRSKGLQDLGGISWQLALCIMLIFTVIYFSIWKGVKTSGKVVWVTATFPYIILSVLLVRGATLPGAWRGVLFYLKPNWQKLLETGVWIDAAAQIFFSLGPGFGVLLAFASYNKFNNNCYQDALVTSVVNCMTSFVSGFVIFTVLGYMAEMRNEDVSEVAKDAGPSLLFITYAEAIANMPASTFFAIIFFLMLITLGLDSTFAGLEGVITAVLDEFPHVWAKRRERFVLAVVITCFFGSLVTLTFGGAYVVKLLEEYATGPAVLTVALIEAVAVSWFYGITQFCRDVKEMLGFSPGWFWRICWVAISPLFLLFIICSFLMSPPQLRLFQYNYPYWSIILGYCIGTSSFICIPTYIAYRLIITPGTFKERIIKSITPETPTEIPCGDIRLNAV
Histamine H1 receptor, sequence (P35367 whole entry): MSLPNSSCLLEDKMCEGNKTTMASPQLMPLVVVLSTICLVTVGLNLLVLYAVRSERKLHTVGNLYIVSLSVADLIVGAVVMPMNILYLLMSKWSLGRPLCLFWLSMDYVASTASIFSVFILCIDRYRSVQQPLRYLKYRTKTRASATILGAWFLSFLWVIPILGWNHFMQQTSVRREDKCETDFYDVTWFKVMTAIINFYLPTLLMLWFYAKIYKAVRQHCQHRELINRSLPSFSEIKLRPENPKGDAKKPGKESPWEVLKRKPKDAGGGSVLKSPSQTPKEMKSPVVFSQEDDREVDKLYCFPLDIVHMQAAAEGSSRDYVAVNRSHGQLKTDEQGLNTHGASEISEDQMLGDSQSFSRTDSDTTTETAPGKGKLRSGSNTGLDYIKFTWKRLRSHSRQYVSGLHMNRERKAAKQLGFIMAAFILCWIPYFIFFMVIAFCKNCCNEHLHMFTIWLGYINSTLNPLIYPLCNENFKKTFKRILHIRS
Sodium-dependent noradrenaline transporter, sequence (P23975 whole entry): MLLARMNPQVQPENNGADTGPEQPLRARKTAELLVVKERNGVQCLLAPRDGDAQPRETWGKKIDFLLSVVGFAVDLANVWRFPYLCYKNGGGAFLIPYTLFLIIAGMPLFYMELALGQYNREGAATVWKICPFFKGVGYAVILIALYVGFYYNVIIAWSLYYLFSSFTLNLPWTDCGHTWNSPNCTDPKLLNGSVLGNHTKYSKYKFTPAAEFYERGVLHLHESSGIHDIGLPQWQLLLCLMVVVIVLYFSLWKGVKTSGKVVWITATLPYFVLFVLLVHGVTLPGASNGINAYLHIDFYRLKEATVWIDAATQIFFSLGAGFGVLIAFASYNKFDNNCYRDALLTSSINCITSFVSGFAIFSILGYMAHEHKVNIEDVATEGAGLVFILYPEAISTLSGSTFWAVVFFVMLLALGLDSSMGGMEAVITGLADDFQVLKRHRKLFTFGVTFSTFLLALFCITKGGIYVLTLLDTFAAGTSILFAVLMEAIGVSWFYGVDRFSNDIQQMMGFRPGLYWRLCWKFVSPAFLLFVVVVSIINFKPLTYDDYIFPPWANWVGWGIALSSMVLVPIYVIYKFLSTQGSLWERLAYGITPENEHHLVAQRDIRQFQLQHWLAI
Histamine H3 receptor (Rattus norvegicus), sequence (Q9QYN8 whole entry): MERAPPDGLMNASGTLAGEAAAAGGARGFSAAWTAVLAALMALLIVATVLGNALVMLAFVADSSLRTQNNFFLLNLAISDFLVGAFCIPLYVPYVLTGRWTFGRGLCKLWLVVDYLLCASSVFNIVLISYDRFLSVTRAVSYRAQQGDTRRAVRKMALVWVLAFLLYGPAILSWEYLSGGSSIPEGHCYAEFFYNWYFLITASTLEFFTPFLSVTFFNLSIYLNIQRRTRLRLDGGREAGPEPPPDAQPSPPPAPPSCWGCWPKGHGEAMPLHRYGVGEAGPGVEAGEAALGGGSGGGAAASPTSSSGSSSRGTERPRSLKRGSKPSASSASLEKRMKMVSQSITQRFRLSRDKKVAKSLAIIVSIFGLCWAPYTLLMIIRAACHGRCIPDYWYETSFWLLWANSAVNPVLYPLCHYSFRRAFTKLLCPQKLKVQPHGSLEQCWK
Muscarinic acetylcholine receptor M3, sequence (P20309 whole entry): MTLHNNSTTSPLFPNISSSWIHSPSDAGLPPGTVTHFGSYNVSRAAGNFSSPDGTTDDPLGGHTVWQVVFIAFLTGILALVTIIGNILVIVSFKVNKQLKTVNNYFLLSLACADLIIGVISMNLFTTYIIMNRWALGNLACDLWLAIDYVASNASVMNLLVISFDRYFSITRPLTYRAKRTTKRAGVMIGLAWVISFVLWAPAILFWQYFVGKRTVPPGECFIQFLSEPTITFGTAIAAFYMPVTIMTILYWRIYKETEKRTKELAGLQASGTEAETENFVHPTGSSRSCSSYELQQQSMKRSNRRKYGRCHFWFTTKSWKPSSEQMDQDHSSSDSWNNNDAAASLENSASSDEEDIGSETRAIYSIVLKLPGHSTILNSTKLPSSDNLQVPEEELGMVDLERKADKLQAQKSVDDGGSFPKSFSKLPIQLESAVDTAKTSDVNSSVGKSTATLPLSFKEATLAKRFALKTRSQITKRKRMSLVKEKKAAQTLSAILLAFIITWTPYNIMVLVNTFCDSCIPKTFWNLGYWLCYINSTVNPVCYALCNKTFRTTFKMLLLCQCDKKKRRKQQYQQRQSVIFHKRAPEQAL
Histamine H2 receptor, sequence (P25021 whole entry): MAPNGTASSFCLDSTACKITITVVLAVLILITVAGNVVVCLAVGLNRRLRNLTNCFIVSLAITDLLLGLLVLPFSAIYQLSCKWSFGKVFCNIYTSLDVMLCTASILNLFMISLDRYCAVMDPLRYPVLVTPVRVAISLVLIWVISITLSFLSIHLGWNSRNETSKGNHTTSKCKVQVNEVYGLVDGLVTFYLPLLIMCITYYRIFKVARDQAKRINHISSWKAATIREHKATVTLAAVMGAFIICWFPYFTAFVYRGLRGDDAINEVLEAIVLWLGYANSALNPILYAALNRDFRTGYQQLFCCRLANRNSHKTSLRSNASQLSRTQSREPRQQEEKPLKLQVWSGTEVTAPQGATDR
Sodium-dependent dopamine transporter, sequence (Q01959 whole entry): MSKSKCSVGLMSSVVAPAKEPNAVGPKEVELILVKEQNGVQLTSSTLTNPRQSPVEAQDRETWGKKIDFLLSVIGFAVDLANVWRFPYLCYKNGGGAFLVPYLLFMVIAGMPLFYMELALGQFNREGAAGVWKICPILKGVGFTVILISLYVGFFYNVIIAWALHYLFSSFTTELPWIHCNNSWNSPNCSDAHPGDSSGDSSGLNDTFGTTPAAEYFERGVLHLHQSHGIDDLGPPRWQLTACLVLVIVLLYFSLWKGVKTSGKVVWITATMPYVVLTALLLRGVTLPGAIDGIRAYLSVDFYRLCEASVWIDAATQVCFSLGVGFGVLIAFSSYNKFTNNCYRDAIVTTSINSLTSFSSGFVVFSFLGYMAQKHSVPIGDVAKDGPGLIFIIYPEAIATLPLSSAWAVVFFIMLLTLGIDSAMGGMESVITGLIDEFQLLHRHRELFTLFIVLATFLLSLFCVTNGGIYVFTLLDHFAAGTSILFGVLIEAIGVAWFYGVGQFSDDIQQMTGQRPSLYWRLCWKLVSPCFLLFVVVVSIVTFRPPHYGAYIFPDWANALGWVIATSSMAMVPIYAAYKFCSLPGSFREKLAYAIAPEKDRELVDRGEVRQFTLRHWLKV

C[C@H]1CC[C@H](C)N1CCCOc1ccc(-c2ccc(C(=O)N3CCOCC3)cc2)cc1 [A-349,821]
Ki [1]: 4900 nM
Kb (Histamine H3 receptor [2]): 2.14 nM
Ki (D(4) dopamine receptor): 9770 nM
half-life [3]: 5.3 h
Ki (Histamine H1 receptor): 2340 nM
Ki (Histamine H4 receptor): 10000 nM
Kb (Cavia porcellus): 0.339 nM
Ki [4]: 1660 nM
Vbeta [5]: 7.5 L/kg
CL/F [6]: 16.7 mL/min/kg
CL/F [7]: 10 mL/min/kg
half-life [8]: 2.6 h
Cmax [9]: 310 ng/mL
pKb [10]: 9.23
Ki [11]: 9770 nM
Ki [12]: 1620 nM
Ki [13]: 933 nM
Ki (Histamine H3 receptor [14]): 0.49 nM
bioavailability [15]: 78%
Ki [16]: 1620 nM
Ki (Histamine H2 receptor): 10000 nM
Ki [17]: 3550 nM
bioavailability [18]: 33%
Cmax [19]: 170 ng/mL
